According to the supplement of paper PMC8617591:

Experiments:
[1] = test system: Mycobacterium tuberculosis Erdman (autoluminescent); test: FIC90 (Loewe) at 90% inhibition (log2); higher = more antagonistic
Protocol: (§1)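 DiaMOND equipotent two-drug combination dose responses against autoluminescent M. tuberculosis Erdman in 8 in vitro models. Read-out is OD600, or luminescence for the intracellular and dormancy models, normalised to untreated wells. Hill-fit Einf, AUC25 and GRinf are potency metrics; FIC50 and FIC90 are Loewe-additivity fractional inhibitory concentrations, given as log2 (negative = synergy). Replicates are averaged.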

[2] = test system: Mycobacterium tuberculosis Erdman (autoluminescent); test: FIC50 (Loewe) at 50% inhibition (log2); higher = more antagonistic
Protocol: as §1

[3] = test system: Mycobacterium tuberculosis Erdman (autoluminescent); test: Einf, fitted maximum growth inhibition of combination (fraction); higher = stronger maximal inhibition
Protocol: as §1

[4] = test system: Mycobacterium tuberculosis Erdman (autoluminescent); test: AUC25, normalised area under dose response up to IC25 (fraction (0-1)); higher = more potent at low dose
Protocol: as §1

[5] = test system: Mycobacterium tuberculosis Erdman (autoluminescent); test: GRinf, maximum normalised growth rate inhibition (unitless (-1 to 1)); higher = less effect (negative = killing)
Protocol: as §1

COc1c(N2C[C@@H]3CCCN[C@@H]3C2)c(F)cc2c(=O)c(C(=O)O)cn(C3CC3)c12 [moxifloxacin] + O=[N+]([O-])c1cn2c(n1)OC[C@@H](OCc1ccc(OC(F)(F)F)cc1)C2 [pretomanid]
Settings | AUC25, [4] | Einf, [3] | FIC50, [2] | FIC90, [1] | GRinf, [5]
in vitro model: acidic pH 5.7, time point: constant (~7 days, model-specific) | 0.139 | 0.846 | 0.225 | – | -0.773
in vitro model: acidic pH 5.7, time point: terminal (~4-5 doublings, model-specific) | 0.107 | 0.976 | -0.052 | 0.879 | -0.428
in vitro model: intracellular J774, time point: constant = terminal | – | 0.993 | – | -0.156 | -0.437

Settings | AUC25, [4] | Einf, [3] | FIC50, [2] | FIC90, [1] | GRinf, [5]
in vitro model: butyrate, time point: constant (~7 days, model-specific) | 0.0964 | 0.947 | 0.526 | 0.61 | -0.0779
in vitro model: butyrate, time point: terminal (~4-5 doublings, model-specific) | 0.0655 | 0.973 | 0.406 | 0.607 | -0.07
in vitro model: cholesterol 0.05 mM, time point: constant (~7 days, model-specific) | 0.119 | 0.751 | 0.221 | – | -0.223
in vitro model: cholesterol 0.05 mM, time point: terminal (~4-5 doublings, model-specific) | 0.105 | 0.938 | 0.248 | 0.691 | -0.248
in vitro model: cholesterol-high 0.2 mM, time point: constant (~7 days, model-specific) | 0.103 | 0.952 | 0.238 | 1.96 | -0.404
in vitro model: cholesterol-high 0.2 mM, time point: terminal (~4-5 doublings, model-specific) | 0.0655 | 1 | 0.457 | 0.364 | -0.745
in vitro model: dormancy (butyrate + nitrate, low O2), time point: constant (~7 days, model-specific) | 0.0724 | 0.898 | 0.568 | 0.524 | 0.165
in vitro model: dormancy (butyrate + nitrate, low O2), time point: terminal (~4-5 doublings, model-specific) | 0.0602 | 0.96 | 0.607 | 0.936 | -0.142
in vitro model: standard 7H9 glycerol, time point: constant = terminal | 0.0929 | 0.978 | -0.329 | 0.198 | -0.166
in vitro model: valerate, time point: constant (~7 days, model-specific) | 0.12 | 0.9 | -0.0268 | – | -0.302
in vitro model: valerate, time point: terminal (~4-5 doublings, model-specific) | 0.102 | 0.968 | -0.156 | 0.429 | -0.0344

COc1nc2ccc(Br)cc2cc1[C@@H](c1ccccc1)[C@@](O)(CCN(C)C)c1cccc2ccccc12 [bedaquiline] + CC(=O)NC[C@H]1CN(c2ccc(N3CCOCC3)c(F)c2)C(=O)O1 [linezolid]
Settings | AUC25, [4] | Einf, [3] | FIC50, [2] | FIC90, [1] | GRinf, [5]
in vitro model: acidic pH 5.7, time point: constant (~7 days, model-specific) | 0.0967 | 0.859 | -0.0767 | – | -0.481
in vitro model: acidic pH 5.7, time point: terminal (~4-5 doublings, model-specific) | 0.0907 | 0.973 | 0.322 | 0.271 | -0.338
in vitro model: intracellular J774, time point: constant = terminal | – | 0.779 | – | – | 0.0692

Settings | AUC25, [4] | Einf, [3] | FIC50, [2] | FIC90, [1] | GRinf, [5]
in vitro model: butyrate, time point: constant (~7 days, model-specific) | 0.0836 | 0.935 | 0.413 | -0.0357 | -0.0894
in vitro model: butyrate, time point: terminal (~4-5 doublings, model-specific) | 0.0548 | 0.955 | 0.268 | 0.0422 | -0.102
in vitro model: cholesterol 0.05 mM, time point: constant (~7 days, model-specific) | 0.153 | 0.803 | 0.123 | – | -0.345
in vitro model: cholesterol 0.05 mM, time point: terminal (~4-5 doublings, model-specific) | 0.147 | 0.945 | -0.0301 | 1.01 | -0.326
in vitro model: cholesterol-high 0.2 mM, time point: constant (~7 days, model-specific) | 0.12 | 0.99 | -0.127 | 0.76 | -0.87
in vitro model: cholesterol-high 0.2 mM, time point: terminal (~4-5 doublings, model-specific) | 0.121 | 1 | -0.334 | 0.414 | -0.851
in vitro model: dormancy (butyrate + nitrate, low O2), time point: constant (~7 days, model-specific) | 0.0774 | 0.933 | 0.344 | 0.554 | 0.113
in vitro model: dormancy (butyrate + nitrate, low O2), time point: terminal (~4-5 doublings, model-specific) | 0.0484 | 0.984 | 0.546 | 0.263 | -0.0845
in vitro model: standard 7H9 glycerol, time point: constant = terminal | 0.0721 | 0.961 | 0.142 | 0.0991 | -0.106
in vitro model: valerate, time point: constant (~7 days, model-specific) | 0.104 | 0.901 | 1.02 | 1.36 | -0.0681
in vitro model: valerate, time point: terminal (~4-5 doublings, model-specific) | 0.067 | 0.947 | 0.743 | 0.916 | -0.0615

CC(=O)NC[C@H]1CN(c2ccc(N3CCOCC3)c(F)c2)C(=O)O1 [linezolid] + COc1c(N2C[C@@H]3CCCN[C@@H]3C2)c(F)cc2c(=O)c(C(=O)O)cn(C3CC3)c12 [moxifloxacin]
Settings | AUC25, [4] | Einf, [3] | FIC50, [2] | FIC90, [1] | GRinf, [5]
in vitro model: acidic pH 5.7, time point: constant (~7 days, model-specific) | 0.144 | 0.799 | -0.0102 | – | -0.581
in vitro model: acidic pH 5.7, time point: terminal (~4-5 doublings, model-specific) | 0.102 | 0.963 | 0.872 | 0.52 | -0.271
in vitro model: intracellular J774, time point: constant = terminal | – | 0.909 | – | 0.463 | -0.14

Settings | AUC25, [4] | Einf, [3] | FIC50, [2] | FIC90, [1] | GRinf, [5]
in vitro model: butyrate, time point: constant (~7 days, model-specific) | 0.0878 | 0.885 | 0.397 | 1.22 | 0.0908
in vitro model: butyrate, time point: terminal (~4-5 doublings, model-specific) | 0.0618 | 0.939 | 0.323 | 0.392 | 0.0886
in vitro model: cholesterol 0.05 mM, time point: constant (~7 days, model-specific) | 0.124 | 0.679 | -0.444 | – | -0.0664
in vitro model: cholesterol 0.05 mM, time point: terminal (~4-5 doublings, model-specific) | 0.137 | 0.938 | 0.0528 | -0.309 | -0.215
in vitro model: cholesterol-high 0.2 mM, time point: constant (~7 days, model-specific) | 0.123 | 0.95 | -0.129 | 0.814 | -0.546
in vitro model: cholesterol-high 0.2 mM, time point: terminal (~4-5 doublings, model-specific) | 0.125 | 1 | -0.211 | 0.433 | -0.844
in vitro model: dormancy (butyrate + nitrate, low O2), time point: constant (~7 days, model-specific) | 0.0537 | 0.914 | 0.869 | 0.521 | 0.139
in vitro model: dormancy (butyrate + nitrate, low O2), time point: terminal (~4-5 doublings, model-specific) | 0.0589 | 0.964 | 0.671 | 0.922 | 0.061
in vitro model: standard 7H9 glycerol, time point: constant = terminal | 0.0831 | 0.955 | 0.52 | 0.972 | -0.197
in vitro model: valerate, time point: constant (~7 days, model-specific) | 0.11 | 0.856 | 0.339 | – | 0.0191
in vitro model: valerate, time point: terminal (~4-5 doublings, model-specific) | 0.0688 | 0.932 | 0.36 | 0.679 | 0.0477
